Measurements as given in patent US5506238A, “Biphenylmethane derivative and pharmacological use” (Eisai Co., Ltd., priority 1989, dated 1996).

Columns and labels:
[1] = Seven-day repeated oral administration, observation of death in SD rats; format: in vivo; conditions: 100 mg/kg/day orally for seven days; eight week-old male SD rats; observed until 24 hr after final administration
Experimental: Further, compound Nos. 1, 2, 5 and 6 listed in the above-described Table 1 were suspended in 0.5% MC (methylcellulose), and the suspension was orally administered to an eight week-old male SD (Sprague Dawley) rats (4 rats per group) in a dose of 100 mg/kg/day for seven days. The rats were observed until 24 hr after the final administration.

[2] = molecular target: T1, angiotensin II contracture of rabbit aortic strip (Oryctolagus cuniculus, UniProt P34976); test: Angiotensin II contracture antagonism through the use of rabbit aortic strip; format: cell-based, rabbit (New Zealand white); conditions: negative log of antagonist concentration giving dose ratio 2, Schild's equation, 40 min preincubation, read-out: pA2 (converted)
T1 construct: A spiral preparation of the aorta having a width of 1.5 to 2 mm and a length of 15 to 20 mm was prepared therefrom; from tissue; host or cells: thoracic aorta of male New Zealand white rabbit, spiral strip
T1 sequence (P34976 1-359): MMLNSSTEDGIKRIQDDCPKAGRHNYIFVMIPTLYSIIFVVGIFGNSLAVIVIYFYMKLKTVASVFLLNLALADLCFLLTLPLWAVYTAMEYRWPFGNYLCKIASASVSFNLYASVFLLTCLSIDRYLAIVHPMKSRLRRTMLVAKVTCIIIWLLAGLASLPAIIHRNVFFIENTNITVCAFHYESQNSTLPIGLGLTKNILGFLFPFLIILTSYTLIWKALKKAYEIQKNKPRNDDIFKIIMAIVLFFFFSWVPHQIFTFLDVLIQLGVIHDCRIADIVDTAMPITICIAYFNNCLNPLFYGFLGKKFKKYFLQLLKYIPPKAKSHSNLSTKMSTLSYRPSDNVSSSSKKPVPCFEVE
Experimental: (1) Angiotens in II contracture antagonism through the use of rabbit aortic strip A male New Zealand white rabbit having a weight of 2 to 3 kg was anesthetized with pentobarbital sodium, and the thoracic aorta was removed. A spiral preparation of the aorta having a width of 1.5 to 2 mm and a length of 15 to 20 mm was prepared therefrom and suspended in a 10-ml Magnus tank containing a Krebs bicarbonate solution (Krebs bicarbonate (mM): NaCl 118.4, KCl 4.7, CaCl2 2.0, MgSO4.7H2O 1.2, NaHCO3.25.0, KH2 PO4 1.2, glucose 11.1). 10^-5 M indomethacine was added thereto to eliminate the influence of prostaglandin. The Krebs solution was maintained at 37° C. and bubbled with 95% O2 -5% CO2. An initial tension of 1 g was applied to the strip, and the strip was allowed to stand for about 1 hr. Then, 50 mM KCl was added thereto to induce contracture. After the contracture was stabilized, the strip was washed. The above procedure was repeated twice, and the second contracture was taken as 100% contracture. Thereafter, angiotensin II was accumulatively added from 10^-10 to 3×10^-6 to prepare a dose-reaction curve. […] The contraction was recorded on a multi-pen recorder (R-10 manufactured by Rika Denki Kogyo Co., Ltd.) through a carrier amplifier (A[…] or A[…] manufactured by Nihon Koden Corp.) by making use of an isometric piezoelectric transducer ([…] manufactured by Nihon Koden Corp.). The potency of the angiotensin II antagonist was determined by calculating negative logarithm (-log) of a concentration of pA2 value [i.e., a concentration of competitive antagonist which makes the dose ratio of the active agent 2] through the use of Schild's equation.

[3] = tested on: pressor reaction of angiotensin II; test: Inhibition of pressor reaction of angiotensin II on anesthetized rat (Wistar Kyoto) having blocked ganglions; format: in vivo; conditions: iv, 0.05 h, ganglion-blocked Wistar Kyoto rat, i.v., 3 min after administration, read-out: Dose necessary for shifting about doubled shift of pressor reaction of angiotensin toward right (ED50)
Experimental: (2) Inhibition of pressor reaction of angiotensin II on anesthetized rat (Wistar Kyoto) having blocked ganglions
A 9 to 25 week-old Wistar Kyoto male rat (Charles River Japan) was anesthetized with 50 mg/kg pentobarbital sodium intraperitoneally, and the carotid and jugular were cannulated. The carotid cannula was connected to a piezoelectric transducer (TP-200T), and recording was conducted with a polygraph system (RM-6000 manufactured by Nihon Koden Corp.) through a carrier amplifier (AP-601G manufactured by Nihon Koden Corp.) and an average blood pressure measuring panel (Nihon Koden Corp.) utilizing the integration of pulse waves. 10 mg/kg of pentolinium was administered intravenously through the jugular cannula to conduct ganglion blockade. […] Then, 0.1 to 10 mg/kg of the test compound was administered intravenously, and 0.03 to 1 μg/kg of angiotensin II was again administered intravenously 3 min after the administration of the test compound to determine the rate of shift of the dose-pressor reaction curve toward the right. A dose (C, ED50, mg/kg, i.v.) necessary for bringing about doubled shift of the dose-pressor reaction curve toward the right was determined from the dose of the antagonist (A, mg/kg, i.v.) and the above-described rate of shift (B). [formula]

Compound | Kb [2] [nM] | death [1] | ED50 [3] [mg/kg]
CCCCc1nc2ccccc2n1Cc1ccc(-c2ccccc2-c2nn[nH]n2)cc1 [compound 1] | 7.76 | no death was observed | 0.74
CCCc1nc2cccnc2n1Cc1ccc(-c2ccccc2-c2nn[nH]n2)cc1 [compound 2] | 0.832 | no death was observed | 0.15
CCCc1nc2cccnc2n1Cc1ccc(-c2cc(Cl)ccc2-c2nnn[nH]2)cc1 [compound 3] | 1.55 |  | 0.44
CCc1nc2cc(Br)cnc2n1Cc1ccc(-c2ccccc2-c2nnn[nH]2)cc1 [compound 4] | 10 |  | 1.57
CCCc1nc2c(C)ccnc2n1Cc1ccc(-c2ccccc2-c2nn[nH]n2)cc1 [compound 5] | 0.0468 | no death was observed | 0.029
CCc1nc2c(C)ccnc2n1Cc1ccc(-c2ccccc2-c2nnn[nH]2)cc1 [compound 6] | 0.0912 | no death was observed | 0.019
CCCCc1nc2cccnc2n1Cc1ccc(-c2cc(OC)ccc2-c2nnn[nH]2)cc1 [compound 8] | 4.27 |  | 0.71
CCCc1nc2c(Cl)ccnc2n1Cc1ccc(-c2ccccc2C(=O)O)cc1 [compound 13] | 8.71 |  | 0.66
CCc1nc2c(C)ccnc2n1Cc1ccc(-c2ccccc2C(=O)O)cc1 [compound 16] | 3.16 |  | 0.29
CCCc1nc2c(C)ccnc2n1Cc1ccc(-c2ccccc2C(=O)O)cc1 [compound 17] | 3.55 |  | 0.17
Cc1ccnc2c1nc(C1CC1)n2Cc1ccc(-c2ccccc2C(=O)O)cc1 [compound 18] | 2.14 |  | 0.075
Cc1ccnc2c1nc(C1CCC1)n2Cc1ccc(-c2ccccc2C(=O)O)cc1 [compound 19] | 4.9 |  | 0.25
CCSc1nc2c(C)ccnc2n1Cc1ccc(-c2ccccc2C(=O)O)cc1 [compound 20] | 5.25 |  | 0.41
CCCc1nc2c(C)cc(C)nc2n1Cc1ccc(-c2ccccc2C(=O)O)cc1 [compound 23] | 1.15 |  | 0.08
Cc1cc(C)c2nc(C3CC3)n(Cc3ccc(-c4ccccc4C(=O)O)cc3)c2n1 [compound 25] | 0.589 |  | 0.021
Cc1ccnc2c1nc(C1CC1)n2Cc1ccc(-c2cc(Cl)ccc2C(=O)O)cc1 [compound 29] | 3.39 |  | 0.06
CCOc1nc2c(C)cc(C)nc2n1Cc1ccc(-c2ccccc2C(=O)O)cc1 [compound 32] | 0.575 |  | 0.018

Continued, in another order:

Kb [2] [nM] | Compound | death [1] | ED50 [3] [mg/kg]
0.0229 | Cc1ccnc2c1nc(C1CC1)n2Cc1ccc(-c2ccccc2-c2nnn[nH]2)cc1 [compound 7] |  | 0.022
23.4 | CCCc1ccnc2c1nc(CC)n2Cc1ccc(-c2ccccc2-c2nnn[nH]2)cc1 [compound 9] |  | 1.33
0.661 | Cc1ccnc2c1nc(C(C)C)n2Cc1ccc(-c2ccccc2-c2nnn[nH]2)cc1 [compound 10] |  | 0.42
0.182 | CCSc1nc2c(C)ccnc2n1Cc1ccc(-c2ccccc2-c2nnn[nH]2)cc1 [compound 11] |  | 0.04
0.525 | CSc1nc2c(C)ccnc2n1Cc1ccc(-c2ccccc2-c2nnn[nH]2)cc1 [compound 12] |  | 0.13
2.95 | CCc1nc2ccc(Cl)nc2n1Cc1ccc(-c2ccccc2-c2nnn[nH]2)cc1 [compound 14] |  | 0.35
1.35 | CCCc1nc2c(C)c(Cl)cnc2n1Cc1ccc(-c2ccccc2-c2nnn[nH]2)cc1 [compound 15] |  | 0.32
0.0115 | CCCc1nc2c(C)ccnc2n1Cc1ccc(-c2cc(Cl)ccc2-c2nnn[nH]2)cc1 [compound 21] |  | 0.071
0.024 | CCCc1nc2c(C)cc(C)nc2n1Cc1ccc(-c2ccccc2-c2nnn[nH]2)cc1 [compound 22] |  | 0.04
0.0138 | Cc1cc(C)c2nc(C3CC3)n(Cc3ccc(-c4ccccc4-c4nnn[nH]4)cc3)c2n1 [compound 24] |  | 0.015
0.0263 | CCOc1nc2c(C)ccnc2n1Cc1ccc(-c2ccccc2-c2nnn[nH]2)cc1 [compound 26] |  | 0.0084
0.372 | CCCOc1nc2c(C)ccnc2n1Cc1ccc(-c2ccccc2-c2nnn[nH]2)cc1 [compound 27] |  | 0.034
0.891 | CC#Cc1nc2c(C)ccnc2n1Cc1ccc(-c2ccccc2-c2nnn[nH]2)cc1 [compound 28] |  | 0.04
0.132 | COc1nc2c(C)ccnc2n1Cc1ccc(-c2ccccc2-c2nnn[nH]2)cc1 [compound 30] |  | 0.016
0.182 | CCOc1nc2c(C)cc(C)nc2n1Cc1ccc(-c2ccccc2-c2nnn[nH]2)cc1 [compound 31] |  | 0.01
